The values below come from paper PMC11009625, “Antibiotic class with potent in vivo activity targeting lipopolysaccharide synthesis in Gram-negative bacteria” (Proceedings of the National Academy of Sciences of the …, 2024).

The subject of experiment [1] is E. coli EC 106-09 (EN122). The experiment can be described thus: Neutropenic mouse peritonitis model, E. coli. The experiment is classed as in vivo, mice. The note with it: single sc dose, modeled efficacy curves; for ED50: Escherichia coli. On the procedure:
PK and safety studies were done the Latvian Institute for Organic Synthesis (Riga, Latvia) and in vivo efficacy studies were done at Statens Serum Institut (Copenhagen, Denmark). Assays were done in accordance with the relevant permits at the respective sites (SI Appendix). For PK studies, plasma samples were taken from mice dosed subcutaneously and the samples were analyzed by UPLC/MS/MS. For in vivo efficacy studies, neutropenic mice were infected intraperitoneally with 10^6 bacteria and treated with subcutaneously with test compounds 1 h after infection. The mice were euthanized 4 h after treatment and serially diluted samples of blood and peritoneal fluid were plated onto blood agar plates. Complete experimental details available in SI Appendix.
Lantmännen) and water. The experimental procedures were performed in accordance with the guidelines of the European Community and local laws and policies (Directive 2010/63/EU), and all of the procedures were approved by Food and Veterinary Service, Riga, Latvia. […]
Bacterial strains and inoculum. E. coli EC 106-09 (EN122) and K. pneumoniae SSI #3010 (EN124) are clinical isolates from Denmark. Bacterial suspensions for inoculation of mice were prepared […]
at room temperature from fresh overnight cultures on 5% blood agar plates produced by SSI diagnostica (Copenhagen Denmark). The inoculum was prepared immediately before inoculation by suspending colonies in sterile 0.9% saline to an optical density of 0.13 at 540 nm, giving a density of 10^8 CFU/ml and further diluted in 0.9% saline to 2 x 10^6 CFU/ml before injecting into the mice. For each experiment, the size of the inoculum was determined by making ten-fold dilutions in 0.9% saline, of which 20 µl was plated on 5% blood agar plates with subsequent counting of colonies after incubation overnight at 35°C in ambient air.
Mice. Outbred female CD-1 mice 26-30 gram (Envigo, Netherlands) were housed at the animal facility at Statens Serum Institut. The temperature was 22 °C +/- 2 °C and the humidity was 55 +/- 10%. The mice were housed in individually ventilated type 3 macrolone cages with bedding from Tapvei. The air changes per hour were approximately 8-12 times (70-73 times per hours inside cages), and light/dark period was in 12-hours interval of 6 a.m.- 6 p.m./6 p.m – 6 a.m.
The mice had ad libitum access to domestic quality drinking water and food Teklad Global diet 2916C-Envigo) and occasionally peanuts and sunflower seeds (Køge Korn A/S). Further, the animals were offered Enviro-Dri nesting material and cardboard houses (Bio-serv).
Mouse peritonitis model. The mice were rendered neutropenic by injecting 0.5 mL cyclophosphamide solution, 200 mg/kg intraperitoneally at 4 days and 100 mg/kg at 1 day prior to inoculation. 1 h before inoculation, mice were treated orally with […] Nurofen (20 mg ibuprofen/mL corresponding to approximately 30 mg/kg) as a pain relief. Inoculation was performed by intraperitoneal injection of 0.5 ml of the bacterial suspension containing log 6
CFU. The mice were treated subcutaneously with 0.25 – 0.30 mL based on weight, in the neck region with a single dose of compound at 1 hour post inoculation. Mice were monitored for clinical signs of discomfort. 4 h after treatment the mice were anesthetized and blood was collected by heart puncture into EDTA tubes and thereafter mice were euthanized by cervical dislocation and peritoneal washes were performed by injecting 2 ml of sterile saline intraperitoneally, followed by gentle massage of the abdomen and opening the peritoneum to collect fluid. Full blood and peritoneal fluids were serially diluted (ten-fold dilutions) and 20 µl was plated on blood agar plates produced at the SSI diagniostica (Copenhagen, Denmark) with subsequent counting of colonies after incubation overnight at 35°C in ambient. All animal experiments were approved by the National Committee of Animal Ethics – Animal Experiment Inspectorate under the Danish Ministry of Justice.
Statistical analyses. […]

Experiment [2] concerns P. mirabilis ATCC 7002 and tolC::Tn5-kan2 EN1490. Description: MIC, P. mirabilis laboratory strains. The note with it: Proteus mirabilis. Type of experiment: cell-based. On the procedure:
(§1) Minimum inhibitory concentration (MIC) values were determined according to the Clinical Laboratory Standards Institute guidelines. Frequency of resistance was determined by plating ~5 × 10^8 bacterial cells on agar-solidified media plates containing test compound at concentrations corresponding to four times the measured solid-media MIC of the strains. Colonies were counted after 24 h, restreaked onto media containing the same concentration of compound, and the MIC remeasured against the assayed compound. Genomic DNA from isolated clones was sequenced by paired-end sequencing on an Illumina MiSeq device. Complete experimental details available in SI Appendix. […]
Minimum inhibitory concentration (MIC) determination. Broth microdilution and agar dilution MIC assays were conducted according to CLSI guidelines (M07-2012). Appropriate inoculation suspension density was assessed using a Sensititre Nephelometer with a Sensititre 0.5 […]
McFarland Standard. […]
Strain construction. The efflux-defective P. mirabilis strain EN1490 was constructed using EZ-Tn5 <KAN-2> Transposome mutagenesis with TypeOne Restriction Inhibitor. Approximately 3000 independent clones were screened for increased susceptibility to chloramphenicol (8 mg/L), yielding 2 independent clones with insertions in the gene tolC. […]

In another experiment the test system is K. pneumoniae ATCC 13883. Description: Frequency of resistance and agar MIC, K. pneumoniae. The experiment is classed as cell-based. The note with it: Klebsiella pneumoniae, ATCC13883, read-out: Agar MIC K. pneumoniae ATCC 13883. On the procedure:
as §1
Minimum inhibitory concentration (MIC) determination. […] Appropriate inoculation suspension density was assessed using a Sensititre Nephelometer with a Sensititre 0.5 […]
Frequency of Resistance. Frequency of resistance was assessed by spread plating between […] cfu of a freshly-grown culture of the strain of interest on plates containing a concentration of compound corresponding to 4 times the MIC of the strain (as determined by agar-dilution MIC). […] The frequency of resistance was determined by dividing the number of colonies obtained on the selective plates after 24 hours of growth by the calculated total population plated. […]

[3] abbreviates: blood, read-out: ED50, blood, E. coli.
The mark [4] stands for this setting: peritoneal fluid, read-out: ED50, peritoneal fluid, E. coli.
The mark [5] stands for this setting: ATCC7002, read-out: MIC P. mirabilis ATCC 7002.
Where [6] appears, read: ATCC7002, read-out: MIC P. mirabilis EN1490.

Each structure is given as a SMILES string. In brackets after ≈: the same amount, converted by molar mass. Like-named read-outs stand apart in the source and are kept apart here.

For the molecule `Cc1cc(C#N)nc(N2CCN(S(=O)(=O)c3ccc(NC(=O)c4cc(CN5CC(CN)C5)ccc4N(C)S(C)(=O)=O)cc3)CC2)n1` [EBL-3647], the ED50 in experiment [1] (setting [3]) was 12.3 mg/kg. Moreover, in experiment [1] (setting [4]), the ED50 came to 13.6 mg/kg. In experiment [1] (blood), the “1-log effective dose, blood, E. coli” value is recorded as 14.5 mg/kg; the “2-log effective dose, blood, E. coli” value is recorded as 19.6 mg/kg; the “3-log effective dose, blood, E. coli” value is 27.6 mg/kg. Also, in experiment [1] (peritoneal fluid), the “1-log effective dose, peritoneal fluid, E. coli” value is given as 20.8 mg/kg and the “2-log effective dose, peritoneal fluid, E. coli” value is 31.2 mg/kg. Also, the MIC in experiment [2] (setting [5]) is greater than 64 µg/mL. In addition, in experiment [2] (setting [6]), the MIC was determined as 16 µg/mL (≈ 24 µM). Further, in the experiment on K. pneumoniae ATCC 13883, the MIC stood at 0.5 µg/mL (≈ 0.749 µM).
As to `Cc1cc(C#N)nc(N2CCN(S(=O)(=O)c3ccc(NC(=O)c4cc(CNCCCN)ccc4N(C)S(C)(=O)=O)cc3)CC2)n1.Cl.Cl` [EBL-3599], the figures for the ED50 in experiment [1] (setting [3]) and in experiment [1] (setting [4]) were 20 mg/kg and 29.6 mg/kg, respectively. In addition, the “1-log effective dose, blood, E. coli” value in experiment [1] (blood) came out at 28.3 mg/kg. The “2-log effective dose, blood, E. coli” value in experiment [1] (blood) is 42.8 mg/kg. For the same molecule, the “3-log effective dose, blood, E. coli” value in experiment [1] (blood) stood at 63.4 mg/kg. Also, in experiment [1] (peritoneal fluid), the “1-log effective dose, peritoneal fluid, E. coli” value came to 45.9 mg/kg. In addition, the “2-log effective dose, peritoneal fluid, E. coli” value in experiment [1] (peritoneal fluid) was found to be 70.0 mg/kg. Further, the MIC in experiment [2] (setting [5]) was greater than 64 µg/mL; in experiment [2] (setting [6]), 4 µg/mL; in the experiment on K. pneumoniae ATCC 13883, 0.5 µg/mL.
